Assay [1] relates to B16-F10 cells. As to the kind of experiment: Cell proliferation assay (CellTiter-Glo) in IFN-gamma treated B16-F10 cells. The assay is classed as cell-based. To be noted: 120 h, mouse IFN-gamma 10 ng/mL, read-out: PTPN2 Prolif 5d B16F10 EC50. How it is done: B16-F10 cells (ATCC, Manassas, VA, #CRL-6475) were cultured in DMEM growth medium (ThermoFisher Scientific, Waltham, MA, #11995-040) supplemented with 10% heat inactivated FBS (ThermoFisher Scientific, #16140-071) and 1% pen/strep (ThermoFisher Scientific, #15140-122). The cells were seeded into two white opaque 384-well tissue culture treated microplates (PerkinElmer, Waltham, MA, #6007688) at a density of 100 cells/well in 20 uL total volume and incubated overnight at 37 C and 5% CO2. 30 nL of compounds dissolved in DMSO were then transferred from a source plate into target wells with the Echo650 acoustic liquid handler (Beckman Coulter, Indianapolis, IN). Negative control wells received 30 nL of DMSO only (0.15% final concentration). Plates were returned to the incubator for 1 hour and then cells treated with either 5 uL of growth medium or 5 uL of growth medium containing 50 ng/mL of recombinant mouse IFN-gamma protein (R&D Systems, Minneapolis, MN, #485-MI/CF, 10 ng/mL final concentration) using the Assist automated pipetting platform (INTEGRA Biosciences, Hudson, NH). Plates were incubated at 37 C for 4 days and cell proliferation assayed with the CellTiter-Glo reagent (Promega, Madison, WI, #G7573, 25 uL per well). […] Off-target compound mediated cytotoxicity was identified by checking for growth inhibition in the absence of IFNg.
For orientation: ATP-based viability assays read luminescence as a measure of living cells.

For assay [2], the system named is phosphorylated STAT1 protein levels in B16-F10 cells. As to the kind of experiment: Phospho-STAT1 (Tyr701) HTRF assay in IFN-gamma treated B16-F10 cells. The assay is classed as cell-based. The following applies: mouse IFN-gamma 100 ng/mL, 1 hour, read-out: pSTAT1 HTRF B16 EC50. How it is done:
B16-F10 cells (ATCC, Manassas, VA, #CRL-6475) were cultured in DMEM growth medium (ThermoFisher Scientific, Waltham, MA, #11995-040) supplemented with 10% heat inactivated FBS (ThermoFisher Scientific, #16140-071) and 1% pen/strep (ThermoFisher Scientific, #15140-122). The cells were seeded into a white opaque 384-well tissue culture treated microplate (PerkinElmer, Waltham, MA, #6007688) at a density of 10,000 cells/well in 20 uL total volume and incubated overnight at 37 C and 5% CO2. 30 nL of compounds dissolved in DMSO were then transferred from a source plate into target wells with the Echo650 acoustic liquid handler (Beckman Coulter, Indianapolis, IN). Negative control wells received 30 nL of DMSO only (0.15% final concentration). Plates were returned to the incubator for 1 hour and then cells treated with either 5 uL of growth medium or 5 uL of growth medium containing 500 ng/mL of recombinant mouse IFN-gamma protein (R&D Systems, Minneapolis, MN, #485-MI/CF, 100 ng/mL final concentration) using the Assist automated pipetting platform (INTEGRA Biosciences, Hudson, NH). Plates were incubated at 37 C for 1 hour and assayed for phosphorylated STAT1 protein levels with the phospho-STAT1 (Tyr701) HTRF kit (Cisbio, Bedford, MA, #63ADK026PEH) according to manufacturer's instructions.

For assay [3], the target named is T1, PTPN2 enzyme (Homo sapiens, UniProt P17706).
T1 sequence (P17706 1-415): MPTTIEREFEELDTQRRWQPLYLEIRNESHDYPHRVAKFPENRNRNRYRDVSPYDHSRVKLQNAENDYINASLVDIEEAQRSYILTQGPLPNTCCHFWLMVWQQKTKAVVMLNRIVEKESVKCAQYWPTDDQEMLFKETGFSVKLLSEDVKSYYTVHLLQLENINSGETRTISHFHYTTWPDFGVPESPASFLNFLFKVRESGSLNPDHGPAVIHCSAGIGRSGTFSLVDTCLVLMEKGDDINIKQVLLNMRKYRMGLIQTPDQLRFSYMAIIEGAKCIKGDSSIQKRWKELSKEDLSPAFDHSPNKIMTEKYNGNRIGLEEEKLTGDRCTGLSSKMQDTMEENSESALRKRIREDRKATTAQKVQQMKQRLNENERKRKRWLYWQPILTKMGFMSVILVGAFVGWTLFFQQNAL
As to the kind of experiment: PhosphoSens PTPN2 biochemical assay. To be noted: substrate AQT0264 20 μM, room temperature; read-out: PTPN2 BCHEM IC50. How it is done: A PhosphoSens® kinase assay was performed as described by the vendor (AssayQuant Technologies, Marlborough, MA). Briefly, 1000×solutions of compounds were prepared in DMSO via serial dilution of the 10 mM DMSO stocks using 3-fold intervals in a 384-well reagent plate. 50 nL of the compound dilution series was then added to the corresponding wells of a 384-well assay plate. […] of 1.25×substrate (AQT0264) in 1× assay buffer (50 mM HEPES pH 7.5, 500 μM EGTA, […] MgCl2, 0.01% Brij-35, 1% Glycerol, 1 mM DTT, and 0.2 mg/mL BSA) was transferred to each well of the assay plate to achieve a final substrate concentration of 20 μM. Finally, […] of 5×PTPN2 enzyme stock was added to each well of the assay plate for a final enzyme concentration of […]. Reaction progress curves were collected by sampling fluorescence intensity at the excitation wavelength 360 nm (λex360) and emission wavelength 480 nm (λem480) every 71 seconds for one hour using a Synergy H4 plate reader (BioTek Instruments/Agilent Technologies, Winooski, VT) at room temperature.

As for `O=C1CN(c2c(O)cc(-c3ccc(N4CCOCC4)cc3)cc2F)S(=O)(=O)N1` [EXAMPLE 13, 5-[2-fluoro-6-hydroxy-4-(4-morpholinophenyl)phenyl]-1,1-dioxo-1,2,5-thiadiazolidin-3-one], the concentration giving a half-maximal response (EC50) in assay [1] and in assay [2] was no less than 15000 nM in each case. Also, the half-inhibitory concentration (IC50) in assay [3] was 466 nM.
As for `O=C1CN(c2c(O)cc(-c3cccc(N4CCOCC4)c3)cc2F)S(=O)(=O)N1` [EXAMPLE 16, 5-[2-fluoro-6-hydroxy-4-(3-morpholinophenyl)phenyl]-1,1-dioxo-1,2,5-thiadiazolidin-3-one], the EC50 in assay [1] and in assay [2] was no less than 15000 nM each time. In addition, in assay [3], the IC50 came to 423 nM.
Consider `CNC(=O)CN1CCN(Cc2cc(O)c(N3CC(=O)NS3(=O)=O)c(F)c2)CC1` [EXAMPLE 59, 2-(4-(4-(1,1-dioxido-4-oxo-1,2,5-thiadiazolidin-2-yl)-3-fluoro-5-hydroxybenzyl)piperazin-1-yl)-N-methylacetamide], for which the EC50 in assay [1] and in assay [2] was no less than 15000 nM in each case. Also, the IC50 in assay [3] turned out to be 477 nM.
As to `O=C1CN(c2c(O)cc(CNC3CCOCC3)cc2F)S(=O)(=O)N1` [EXAMPLE 35, 5-[2-fluoro-6-hydroxy-4-[(tetrahydropyran-4-ylamino)methyl]phenyl]-1,1-dioxo-1,2,5-thiadiazolidin-3-one], the EC50 in assay [1] and in assay [2] was no less than 15000 nM each time. Also, the IC50 in assay [3] amounted to 1560 nM.
Regarding `O=C1CN(c2c(O)cc(-c3cccnc3)cc2F)S(=O)(=O)N1` [EXAMPLE 8, 5-(2-fluoro-6-hydroxy-4-(pyridin-3-yl)phenyl)-1,2,5-thiadiazolidin-3-one 1,1-dioxide], the 50% effective concentration (EC50) in assay [1] is no less than 15000 nM; in assay [2] it was 2430 nM. Also, the half-maximal inhibitory concentration (IC50) in assay [3] stood at 199 nM.
`O=C1CN(c2c(O)cc(-c3ccnc(-c4ccccc4)c3)cc2F)S(=O)(=O)N1` [EXAMPLE 20, 5-[2-fluoro-6-hydroxy-4-(2-phenyl-4-pyridyl)phenyl]-1,1-dioxo-1,2,5-thiadiazolidin-3-one]: the EC50 in assay [1] and in assay [2] was no less than 15000 nM throughout. Moreover, the concentration for half-maximal inhibition (IC50) in assay [3] amounted to 205 nM.
For the molecule `O=C1CN(c2c(O)cc(-c3ccc(-c4ccc(F)cc4)cc3)cc2F)S(=O)(=O)N1` [EXAMPLE 12, 5-[2-fluoro-4-[4-(4-fluorophenyl)phenyl]-6-hydroxy-phenyl]-1,1-dioxo-1,2,5-thiadiazolidin-3-one], the 50% effective concentration (EC50) in assay [1] and in assay [2] was no less than 15000 nM each time. For the same molecule, in assay [3], the 50% inhibitory concentration (IC50) stood at 1990 nM.
With `O=C1CN(c2c(O)cc(CN[C@H]3CCCNC3)cc2F)S(=O)(=O)N1` [EXAMPLE 65, (S)-5-(2-fluoro-6-hydroxy-4-((piperidin-3-ylamino)methyl)phenyl)-1,2,5-thiadiazolidin-3-one 1,1-dioxide], the EC50 came out at 6860 nM in assay [1] and 5200 nM in assay [2]. Also, the half-maximal inhibitory concentration (IC50) in assay [3] was 130 nM.
Turning to `CN(C)CC1CCN(Cc2cc(O)c(N3CC(=O)NS3(=O)=O)c(F)c2)CC1` [EXAMPLE 56, 5-[4-[[4-[(dimethylamino)methyl]-1-piperidyl]methyl]-2-fluoro-6-hydroxy-phenyl]-1,1-dioxo-1,2,5-thiadiazolidin-3-one], the EC50 in assay [1] and in assay [2] was no less than 15000 nM throughout. For the same molecule, the half-maximal inhibitory concentration (IC50) in assay [3] was 226 nM.
On to `CN1CCN(c2ccc(-c3cc(O)c(N4CC(=O)NS4(=O)=O)c(F)c3)cn2)CC1` [EXAMPLE 27, 5-[2-fluoro-6-hydroxy-4-[6-(4-methylpiperazin-1-yl)-3-pyridyl]phenyl]-1,1-dioxo-1,2,5-thiadiazolidin-3-one], for which the half-maximal effective concentration (EC50) in assay [1] and in assay [2] was no less than 15000 nM in each case. The IC50 in assay [3] is 457 nM.
As for `O=C1CN(c2c(O)cc(CN3CCC(F)CC3)cc2F)S(=O)(=O)N1` [EXAMPLE 42, 5-(2-fluoro-4-((4-fluoropiperidin-1-yl)methyl)-6-hydroxyphenyl)-1,2,5-thiadiazolidin-3-one 1,1-dioxide], the EC50 in assay [1] turned out to be 4720 nM; in assay [2] it was 2570 nM. In assay [3], the IC50 came out at 60 nM.
The corresponding values for `O=C1CN(c2c(O)cc(CNc3cc(F)ccc3Cl)cc2F)S(=O)(=O)N1` [EXAMPLE 80, 5-[4-[(2-chloro-5-fluoro-anilino)methyl]-2-fluoro-6-hydroxy-phenyl]-1,1-dioxo-1,2,5-thiadiazolidin-3-one] are no less than 15000 nM, no less than 15000 nM and 50 nM.
The corresponding values for `O=C1CN(c2c(O)cc(CN[C@@H]3CCCNC3)cc2F)S(=O)(=O)N1` [EXAMPLE 61, (R)-5-(2-fluoro-6-hydroxy-4-((piperidin-3-ylamino)methyl)phenyl)-1,2,5-thiadiazolidin-3-one 1,1-dioxide] are 2560 nM, 4980 nM and 121 nM.
Taken in the same sequence, the figures for `CC(C)CCN1CCN(c2cc(O)c(N3CC(=O)NS3(=O)=O)c(F)c2)CC1` [EXAMPLE 83, 5-(2-fluoro-6-hydroxy-4-(4-isopentylpiperazin-1-yl)phenyl)-1,2,5-thiadiazolidin-3-one 1,1-dioxide] were no less than 15000 nM, no less than 15000 nM and 896 nM.
Consider `CC1(C)CCC(NCc2cc(O)c(N3CC(=O)NS3(=O)=O)c(F)c2)CC1` [EXAMPLE 37, 5-(4-(((4,4-dimethylcyclohexyl)amino)methyl)-2-fluoro-6-hydroxyphenyl)-1,2,5-thiadiazolidin-3-one 1,1-dioxide], for which the EC50 in assay [1] amounted to 812 nM; in assay [2] it was 1340 nM. Moreover, the concentration for half-maximal inhibition (IC50) in assay [3] was 35 nM.
Take `CN(C)C1CCN(c2cc(O)c(N3CC(=O)NS3(=O)=O)c(F)c2)CC1` [EXAMPLE 87, 5-(4-(4-(dimethylamino)piperidin-1-yl)-2-fluoro-6-hydroxyphenyl)-1,2,5-thiadiazolidin-3-one 1,1-dioxide]: the half-maximal effective concentration (EC50) in assay [1] and in assay [2] was no less than 15000 nM in each case. For the same molecule, in assay [3], the half-maximal inhibitory concentration (IC50) is 318 nM.
Turning to `COc1ccc(-c2cc(O)c(N3CC(=O)NS3(=O)=O)c(F)c2)cn1` [EXAMPLE 23, 5-[2-fluoro-6-hydroxy-4-(6-methoxy-3-pyridyl)phenyl]-1,1-dioxo-1,2,5-thiadiazolidin-3-one], the EC50 in assay [1] and in assay [2] was no less than 15000 nM in each case. Besides, the half-maximal inhibitory concentration (IC50) in assay [3] stood at 142 nM.
Take `O=C1CN(c2c(O)cc(-c3ccc(-c4ccccc4)nc3)cc2F)S(=O)(=O)N1` [EXAMPLE 30, 5-[2-fluoro-6-hydroxy-4-(6-phenyl-3-pyridyl)phenyl]-1,1-dioxo-1,2,5-thiadiazolidin-3-one]: the EC50 in assay [1] and in assay [2] was no less than 15000 nM in each case. The IC50 in assay [3] stood at 148 nM.

Usually EC50 stands for the midpoint of the concentration-response curve. For orientation: IC50 means the concentration at which inhibition is half-maximal.

The record behind these values is US12162848B2, “Inhibitors of protein tyrosine phosphatase, compositions, and methods of use” (BRISTOL-MYERS SQUIBB COMPANY, priority 2022, dated 2024).
